Results from ChEMBL document CHEMBL5303573, “Mapping human microbiome drug metabolism by gut bacteria and their genes” (Nature, 2019).

Columns and labels:
[1] = The drug is tested on Collinsella aerofaciens strain: ATCC25986 for biotransformation. The drug concentrations were measured before and after a 12-h incubation by liquid-chromatography-coupled mass spectrometry (LC–MS); conditions: 2 µM
[2] = The drug is tested on Anaerotruncus colihominis strain: DSM17241 for biotransformation. The drug concentrations were measured before and after a 12-h incubation by liquid-chromatography-coupled mass spectrometry (LC–MS); conditions: 2 µM
[3] = The drug is tested on Bifidobacterium breve strain: DSM20213 for biotransformation. The drug concentrations were measured before and after a 12-h incubation by liquid-chromatography-coupled mass spectrometry (LC–MS); conditions: 2 µM
[4] = The drug is tested on Edwardsiella tarda strain: ATCC23685 for biotransformation. The drug concentrations were measured before and after a 12-h incubation by liquid-chromatography-coupled mass spectrometry (LC–MS); conditions: 2 µM
[5] = The drug is tested on Bacteroides cellulosilyticus strain: DSM14838 for biotransformation. The drug concentrations were measured before and after a 12-h incubation by liquid-chromatography-coupled mass spectrometry (LC–MS); conditions: 2 µM
[6] = The drug is tested on Bacteroides fragilis strain: HMW610 for biotransformation. The drug concentrations were measured before and after a 12-h incubation by liquid-chromatography-coupled mass spectrometry (LC–MS); conditions: 2 µM
[7] = bacteroides thetaiotaomicron, 12 h, 2 µM
Description: The drug is tested on Bacteroides thetaiotaomicron strain: VPI-5482 for biotransformation. The drug concentrations were measured before and after a 12-h incubation by liquid-chromatography-coupled mass spectrometry (LC–MS)

[8] = bacteroides fragilis, 12 h, 2 µM
Description: The drug is tested on Bacteroides fragilis strain: NCTC 9343 for biotransformation. The drug concentrations were measured before and after a 12-h incubation by liquid-chromatography-coupled mass spectrometry (LC–MS)

[9] = roseburia intestinalis, 12 h, 2 µM
Description: The drug is tested on Roseburia intestinalis strain: L1-82 for biotransformation. The drug concentrations were measured before and after a 12-h incubation by liquid-chromatography-coupled mass spectrometry (LC–MS)

[10] = The drug is tested on Clostridium scindens strain: ATCC35704 for biotransformation. The drug concentrations were measured before and after a 12-h incubation by liquid-chromatography-coupled mass spectrometry (LC–MS); conditions: 2 µM
[11] = The drug is tested on Enterococcus faecalis strain: V583 for biotransformation. The drug concentrations were measured before and after a 12-h incubation by liquid-chromatography-coupled mass spectrometry (LC–MS); conditions: 2 µM
[12] = bifidobacterium adolescentis, 12 h, 2 µM
Description: The drug is tested on Bifidobacterium adolescentis strain: ATCC 15703 for biotransformation. The drug concentrations were measured before and after a 12-h incubation by liquid-chromatography-coupled mass spectrometry (LC–MS)

[13] = segatella copri, 12 h, 2 µM
Description: The drug is tested on Prevotella copri strain: DSM18205 for biotransformation. The drug concentrations were measured before and after a 12-h incubation by liquid-chromatography-coupled mass spectrometry (LC–MS)

[14] = anaerostipes sp., 12 h, 2 µM
Description: The drug is tested on Anaerostipes sp. strain: fecal isolate for biotransformation. The drug concentrations were measured before and after a 12-h incubation by liquid-chromatography-coupled mass spectrometry (LC–MS)

[15] = The drug is tested on Clostridium sporogenes strain: ATCC15579 for biotransformation. The drug concentrations were measured before and after a 12-h incubation by liquid-chromatography-coupled mass spectrometry (LC–MS); conditions: 2 µM
[16] = The drug is tested on Alistipes indistinctus strain: DSM22520 for biotransformation. The drug concentrations were measured before and after a 12-h incubation by liquid-chromatography-coupled mass spectrometry (LC–MS); conditions: 2 µM
[17] = bacteroides thetaiotaomicron, 12 h, 2 µM; remark: listed apart in the source
Description: The drug is tested on Bacteroides thetaiotaomicron strain: 7330 for biotransformation. The drug concentrations were measured before and after a 12-h incubation by liquid-chromatography-coupled mass spectrometry (LC–MS)

[18] = bacteroides fragilis, 12 h, 2 µM; remark: listed apart in the source
Description: The drug is tested on Bacteroides fragilis strain: 3397 (T10) for biotransformation. The drug concentrations were measured before and after a 12-h incubation by liquid-chromatography-coupled mass spectrometry (LC–MS)

[19] = limosilactobacillus reuteri cf48-3a, 12 h, 2 µM
Description: The drug is tested on Lactobacillus reuteri CF48-3A strain: BEI HM-102 for biotransformation. The drug concentrations were measured before and after a 12-h incubation by liquid-chromatography-coupled mass spectrometry (LC–MS)

Row | SMILES | Bacterial Biotransformation [1] | Bacterial Biotransformation [2] | Bacterial Biotransformation [3] | Bacterial Biotransformation [4] | Bacterial Biotransformation [5] | Bacterial Biotransformation [6] | Bacterial Biotransformation [7] | Bacterial Biotransformation [8] | Bacterial Biotransformation [9] | Bacterial Biotransformation [10] | Bacterial Biotransformation [11] | Bacterial Biotransformation [12] | Bacterial Biotransformation [13] | Bacterial Biotransformation [14] | Bacterial Biotransformation [15] | Bacterial Biotransformation [16] | Bacterial Biotransformation [17] | Bacterial Biotransformation [18] | Bacterial Biotransformation [19]
1 | COc1ccc([C@@H]2Sc3ccccc3N(CCN(C)C)C(=O)[C@@H]2OC(C)=O)cc1 [DILTIAZEM] | Compound metabolized | Compound NOT metabolized | Compound NOT metabolized | Compound NOT metabolized | Compound metabolized | Compound NOT metabolized | Compound metabolized | Compound metabolized | Compound NOT metabolized | Compound NOT metabolized | Compound NOT metabolized | Compound NOT metabolized | Compound NOT metabolized | Compound metabolized | Compound NOT metabolized | Compound metabolized | Compound metabolized |  | 
2 | CN1CCN2c3ccccc3Cc3ccccc3C2C1 (stereo not drawn) [MIANSERIN] | Compound NOT metabolized | Compound NOT metabolized | Compound NOT metabolized | Compound NOT metabolized | Compound NOT metabolized | Compound NOT metabolized |  | Compound NOT metabolized |  | Compound NOT metabolized | Compound NOT metabolized | Compound NOT metabolized |  | Compound NOT metabolized | Compound NOT metabolized |  | Compound NOT metabolized | Compound NOT metabolized | Compound NOT metabolized
3 | CN1C(=O)CC(C)(c2ccccc2)C1=O (stereo not drawn) [METHSUXIMIDE] | Compound NOT metabolized | Compound NOT metabolized | Compound NOT metabolized | Compound NOT metabolized | Compound NOT metabolized |  | Compound NOT metabolized | Compound NOT metabolized |  | Compound NOT metabolized | Compound NOT metabolized | Compound NOT metabolized | Compound NOT metabolized | Compound NOT metabolized | Compound NOT metabolized | Compound NOT metabolized | Compound NOT metabolized | Compound NOT metabolized | 
4 | CC(C)(C)N.CCC[C@H](N[C@@H](C)C(=O)N1[C@H](C(=O)O)C[C@@H]2CCCC[C@@H]21)C(=O)OCC [PERINDOPRIL ERBUMINE] | Compound NOT metabolized | Compound NOT metabolized | Compound NOT metabolized | Compound NOT metabolized | Compound NOT metabolized |  | Compound NOT metabolized | Compound NOT metabolized | Compound NOT metabolized | Compound NOT metabolized | Compound NOT metabolized | Compound NOT metabolized |  | Compound NOT metabolized | Compound NOT metabolized | Compound NOT metabolized |  | Compound NOT metabolized | Compound NOT metabolized
5 | COCCCC/C(=N\OCCN)c1ccc(C(F)(F)F)cc1.O=C(O)/C=C\C(=O)O [FLUVOXAMINE MALEATE] | Compound NOT metabolized | Compound NOT metabolized | Compound NOT metabolized | Compound NOT metabolized | Compound NOT metabolized |  | Compound metabolized |  | Compound NOT metabolized | Compound NOT metabolized | Compound NOT metabolized | Compound NOT metabolized |  | Compound NOT metabolized |  | Compound NOT metabolized | Compound metabolized | Compound metabolized | Compound NOT metabolized
6 | CN(C)CCC=C1c2ccccc2COc2ccccc21 [DOXEPIN] | Compound NOT metabolized | Compound NOT metabolized | Compound NOT metabolized | Compound NOT metabolized | Compound NOT metabolized | Compound NOT metabolized | Compound NOT metabolized |  | Compound NOT metabolized | Compound NOT metabolized | Compound NOT metabolized | Compound NOT metabolized | Compound NOT metabolized | Compound NOT metabolized | Compound NOT metabolized | Compound NOT metabolized | Compound NOT metabolized | Compound NOT metabolized | 
7 | CCOC(=O)[C@H](CCc1ccccc1)N[C@@H](C)C(=O)N1CCC[C@H]1C(=O)O.O=C(O)/C=C\C(=O)O [ENALAPRIL MALEATE] | Compound NOT metabolized | Compound NOT metabolized | Compound NOT metabolized | Compound NOT metabolized | Compound NOT metabolized |  |  | Compound NOT metabolized | Compound NOT metabolized | Compound NOT metabolized | Compound NOT metabolized | Compound NOT metabolized | Compound NOT metabolized | Compound NOT metabolized | Compound NOT metabolized |  |  | Compound NOT metabolized | Compound NOT metabolized
8 | OCCN1CCN(CCCN2c3ccccc3Sc3ccc(C(F)(F)F)cc32)CC1 [FLUPHENAZINE] | Compound NOT metabolized |  | Compound NOT metabolized | Compound NOT metabolized | Compound metabolized |  | Compound metabolized | Compound metabolized | Compound metabolized | Compound NOT metabolized | Compound NOT metabolized | Compound NOT metabolized | Compound metabolized | Compound metabolized | Compound NOT metabolized | Compound NOT metabolized | Compound metabolized | Compound metabolized | Compound metabolized
9 | C#C[C@]1(OC(C)=O)CC[C@H]2[C@@H]3CCC4=CC(=O)CC[C@@H]4[C@H]3CC[C@@]21C [NORETHINDRONE ACETATE] | Compound metabolized | Compound metabolized | Compound NOT metabolized | Compound NOT metabolized | Compound metabolized | Compound metabolized | Compound metabolized | Compound metabolized |  | Compound NOT metabolized | Compound NOT metabolized | Compound NOT metabolized | Compound metabolized | Compound metabolized | Compound metabolized | Compound metabolized | Compound metabolized | Compound metabolized | Compound NOT metabolized
10 | CN(C)C(=O)Oc1cccc([N+](C)(C)C)c1.[Br-] [NEOSTIGMINE BROMIDE] | Compound NOT metabolized | Compound NOT metabolized | Compound NOT metabolized | Compound NOT metabolized | Compound NOT metabolized |  | Compound metabolized | Compound metabolized | Compound NOT metabolized | Compound NOT metabolized | Compound NOT metabolized | Compound NOT metabolized |  | Compound NOT metabolized | Compound NOT metabolized | Compound NOT metabolized | Compound metabolized | Compound metabolized | Compound NOT metabolized
